21 compounds from patent US20260265265A1, “NOVEL BENZIMIDAZOLONE DERIVATIVE COMPOUND AS AUTOTAXIN INHIBITOR” (LG CHEM, LTD., priority 2023, published 2026) can be followed below.

The experiment has as its target T1, Recombinant Human ENPP-2/Autotaxin (Homo sapiens, UniProt Q13822).
T1 construct: purchased R&D systems 5255-EN
As to the kind of experiment: LysoPLD activity measurement (autotaxin enzyme inhibition, choline release, TOOS reagent). Particulars: LysoPLD inhibitory activity; substrate 14:0 LysoPC; absorbance at 555 nm. In kind it is biochemical. The method, boiled down: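 Autotaxin lysoPLD activity was read as choline released from 14:0 LysoPC, detected by TOOS reagent absorbance. Compound was preincubated 30 min, then substrate diluted to 300 μM was added and the reaction ran 90 minutes at 37° C. Controls contained 1% DMSO.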

Molecules are shown by their SMILES. Bounds are passed on as bounds.

The term IC50 denotes the concentration at which inhibition is half-maximal. In the case of `O=C(O)c1cccc(C2(n3c(=O)n(-c4ccc(C(=O)N5CC(O)C5)cc4)c4cc(Cl)cnc43)CC2)c1F` [Example 232, 3-(1-(6-chloro-1-(4-(3-hydroxyazetidine-1-carbonyl)phenyl)-2-oxo-1,2-dihydro-3H-imidazo[4,5-b]pyridin-3-yl)cyclopropyl)-2-fluorobenzoic acid], the IC50 is below 10 nM.
Next, `CCCn1cc(-n2c(=O)n(Cc3cccc(C(=O)O)c3)c3ccc(Cl)c(F)c32)cn1` [Example 88, 3-((5-chloro-4-fluoro-2-oxo-3-(1-propyl-1H-pyrazol-4-yl)-2,3-dihydro-1H-benzo[d]imidazol-1-yl)methyl)benzoic acid]: 10 to 100 nM; `CCC(=O)N1CCC(c2ccc(-n3c(=O)n(Cc4cccc(C(=O)O)c4F)c4ccc(Cl)c(F)c43)cc2)CC1` [Example 151, 3-((5-chloro-4-fluoro-2-oxo-3-(4-(1-propionylpiperidin-4-yl)phenyl)-2,3-dihydro-1H-benzo[d]imidazol-1-yl)methyl)-2-fluorobenzoic acid]: 10 to 100 nM; `O=C(O)c1cccc(C2(n3c(=O)n(-c4ccc(CN5CCOCC5)cc4)c4cc(Cl)ccc43)CC2)c1` [Example 145, 3-(1-(5-chloro-3-(4-(morpholinomethyl)phenyl)-2-oxo-2,3-dihydro-1H-benzo[d]imidazol-1-yl)cyclopropyl)benzoic acid]: 10 to 100 nM.
Next, `CN(C)C(=O)Cc1ccc(-n2c(=O)n(C3(c4cccc(C(=O)O)c4)CC3)c3ncc(Cl)cc32)cc1` [Example 226, 3-(1-(6-chloro-1-(4-(2-(dimethylamino)-2-oxoethyl)phenyl)-2-oxo-1,2-dihydro-3H-imidazo[4,5-b]pyridin-3-yl)cyclopropyl)benzoic acid]: 10 to 100 nM.
Turning to `CN(C)c1ccc(-n2c(=O)n(C3(c4cc(F)cc(C(=O)O)c4)CC3)c3ccc(Cl)cc32)cc1` [Example 188, 3-(1-(5-chloro-3-(4-(dimethylamino)phenyl)-2-oxo-2,3-dihydro-1H-benzo[d]imidazol-1-yl)cyclopropyl)-5-fluorobenzoic acid], the IC50 is below 10 nM.
Next, `O=C(O)c1cc(F)cc(C2(n3c(=O)n(-c4ccc(C5CCOCC5)cc4)c4cc(Cl)ccc43)CC2)c1` [Example 190, 3-(1-(5-chloro-2-oxo-3-(4-(tetrahydro-2H-pyran-4-yl)phenyl)-2,3-dihydro-1H-benzo[d]imidazol-1-yl)cyclopropyl)-5-fluorobenzoic]: 10 to 100 nM; `O=C(O)c1cccc(Cn2c(=O)n(-c3ccc(N4CCN(C(=O)C5CC5)CC4)cc3)c3cc(Cl)ccc32)c1` [Example 95, 3-((5-chloro-3-(4-(4-(cyclopropanecarbonyl)piperazin-1-yl)phenyl)-2-oxo-2,3-dihydro-1H-benzo[d]imidazol-1-yl)methyl)benzoic acid]: 10 to 100 nM.
Take `CC(C)(O)Cc1ccc(-n2c(=O)n(C3(c4cccc(C(=O)O)c4)CC3)c3ccc(Cl)cc32)cc1` [Example 216, 3-(1-(5-chloro-3-(4-(2-hydroxy-2-methylpropyl)phenyl)-2-oxo-2,3-dihydro-1H-benzo[d]imidazol-1-yl)cyclopropyl)benzoic acid]: the IC50 is below 10 nM.
For the compound `CC1(C)Cc2cc(-n3c(=O)n(Cc4cccc(C(=O)O)c4)c4ccc(Cl)cc43)ccc2C1=O` [Example 115, 3-((5-chloro-3-(2,2-dimethyl-1-oxo-2,3-dihydro-1H-inden-5-yl)-2-oxo-2,3-dihydro-1H-benzo[d]imidazol-1-yl)methyl)benzoic acid], the IC50 lay within 100 to 1000 nM.
Next, `CN(C)c1ccc(-n2c(=O)n(C3(c4cccc(C(=O)O)c4)CC3)c3ccc(OC(F)(F)F)cc32)cc1` [Example 208, 3-(1-(3-(4-(dimethylamino)phenyl)-2-oxo-5-(trifluoromethoxy)-2,3-dihydro-1H-benzo[d]imidazol-1-yl)cyclopropyl)benzoic acid]: 10 to 100 nM; `CN(C)c1ccc(-n2c(=O)n(Cc3cccc(C(=O)O)c3)c3c(F)cc(Cl)cc32)cc1` [Example 66, 3-((5-chloro-3-(4-(dimethylamino)phenyl)-7-fluoro-2-oxo-2,3-dihydro-1H-benzo[d]imidazol-1-yl)methyl)benzoic acid]: 10 to 100 nM; `O=C(O)c1cccc(C2(n3c(=O)n(-c4ccc(C5CCOCC5)cc4)c4cc(Cl)cnc43)CC2)c1F` [Example 228, 3-(1-(6-chloro-2-oxo-1-(4-(tetrahydro-2H-pyran-4-yl)phenyl)-1,2-dihydro-3H-imidazo[4,5-b]pyridin-3-yl)cyclopropyl)-2-fluorobenzoic acid]: 10 to 100 nM.
To `Cc1ccc(-n2c(=O)n(Cc3cccc(C(=O)O)c3)c3ccc(Cl)cc32)cc1` [Example 8, 3-((5-chloro-2-oxo-3-(p-tolyl)-2,3-dihydro-1H-benzo[d]imidazol-1-yl)methyl)benzoic acid] belongs 100 to 1000 nM; to `O=C(O)c1cccc(Cn2c(=O)n(-c3ccc(OCC4CCC4)cc3)c3cc(Cl)ccc32)c1` [Example 27, 3-((5-chloro-3-(4-(cyclobutylmethoxy)phenyl)-2-oxo-2,3-dihydro-1H-benzo[d]imidazol-1-yl)methyl)benzoic acid], 100 to 1000 nM; to `O=C(O)c1cc(F)cc(Cn2c(=O)n(-c3ccc(N4CCOCC4)cc3)c3c(F)c(Cl)ccc32)c1` [Example 49, 3-((5-chloro-4-fluoro-3-(4-morpholinophenyl)-2-oxo-2,3-dihydro-1H-benzo[d]imidazol-1-yl)methyl)-5-fluorobenzoic acid], 10 to 100 nM.
To `O=C(O)c1cccc(Cn2c(=O)n(-c3ccc(C4CCN(C5COC5)CC4)cc3)c3cc(Cl)ccc32)c1` [Example 259, 3-((5-chloro-3-(4-(1-(oxetan-3-yl)piperidin-4-yl)phenyl)-2-oxo-2,3-dihydro-1H-benzo[d]imidazol-1-yl)methyl)benzoic acid] belongs 100 to 1000 nM.
As to `CCCCc1ccc(-n2c(=O)n(Cc3cccc(C(=O)O)c3)c3ccc(Cl)cc32)cc1` [Example 16, 3-((3-(4-butylphenyl)-5-chloro-2-oxo-2,3-dihydro-1H-benzo[d]imidazol-1-yl)methyl)benzoic acid], the IC50 was in the range of 100 to 1000 nM.
To `O=C(O)c1cccc(Cn2c(=O)n(-c3ccc(N4CCC(F)(F)C4)cc3)c3c(F)c(Cl)ccc32)c1F` [Example 119, 3-((5-chloro-3-(4-(3,3-difluoropyrrolidin-1-yl)phenyl)-4-fluoro-2-oxo-2,3-dihydro-1H-benzo[d]imidazol-1-yl)methyl)-2-fluorobenzoic acid] belongs 10 to 100 nM.
Take `O=C(O)c1cccc(Cn2c(=O)n(-c3ccc(N4CC(O)C4)cc3)c3c(F)c(Cl)ccc32)c1F` [Example 120, 3-((5-chloro-4-fluoro-3-(4-(3-hydroxyazetidin-1-yl)phenyl)-2-oxo-2,3-dihydro-1H-benzo[d]imidazol-1-yl)methyl)-2-fluorobenzoic acid]: the IC50 lay within 10 to 100 nM.
Next, `CC(C)OC(=O)N1CCN(c2ccc(-n3c(=O)n(Cc4cccc(C(=O)O)c4)c4ccc(Cl)cc43)cc2)CC1` [Example 96, 3-((5-chloro-3-(4-(4-(isopropoxycarbonyl)piperazin-1-yl)phenyl)-2-oxo-2,3-dihydro-1H-benzo[d]imidazol-1-yl)methyl)benzoic acid]: 10 to 100 nM.
